# Laboratory results reported in US6977262B2, “Dihydropyrazolopyridine compounds and pharmaceutical use thereof” (Mitsubishi Pharma Corporation, priority 2001, dated 2005).
row,Structure (SMILES),melting point
1,"CCCC1=C(C#N)C(c2ccccc2Cl)c2cn(C(=O)Nc3ccccc3)nc2N1 (stereo not drawn) [Example 284, 4-(2-Chlorophenyl)-5-cyano-4,7-dihydro-2-phenylcarbamoyl-6-propyl-2H-pyrazolo[3,4-b]pyridine]",167 to 171 °C
2,"CCCC1=C(C#N)C(c2cccc3nonc23)c2cn(C(=O)OC(C)(C)C)nc2N1 (stereo not drawn) [Example 288, 4-(2,1,3-Benzoxadiazol-4-yl)-2-tert-butoxycarbonyl-5-cyano-4,7-dihydro-6-propyl-2H-pyrazolo[3,4-b]pyridine]",168 to 170 °C
3,"CCCC1=C(C#N)C(c2ccccc2Cl)c2c(n[nH]c2-c2ccc(OC)cc2)N1 (stereo not drawn) [Example 290, 4-(2-Chlorophenyl)-5-cyano-4,7-dihydro-3-(4-methoxyphenyl)-6-propyl-2H-pyrazolo[3,4-b]pyridine]",284 °C
4,"CCCC1=C(C#N)C(c2ccccc2Cl)c2c(n[nH]c2-c2cccs2)N1 (stereo not drawn) [Example 294, 4-(2-Chlorophenyl)-5-cyano-4,7-dihydro-6-propyl-3-(thiophen-2-yl)-2H-pyrazolo[3,4-b]pyridine]",256 °C
5,"CCCC1=C(C#N)C(c2ccccc2Cl)c2c(n[nH]c2-c2ccco2)N1 (stereo not drawn) [Example 295, 4-(2-Chlorophenyl)-5-cyano-4,7-dihydro-3-(furan-2-yl)-6-propyl-2H-pyrazolo[3,4-b]pyridine]",253 °C
6,"CCCC1=C(C#N)C(c2ccccc2Cl)c2c(n[nH]c2-c2ccccc2OC)N1 (stereo not drawn) [Example 296, 4-(2-Chlorophenyl)-5-cyano-4,7-dihydro-3-(2-methoxyphenyl)-6-propyl-2H-pyrazolo[3,4-b]pyridine]",> 270 °C
7,"CCCC1=C(C#N)C(c2ccccc2Cl)c2c(n[nH]c2-c2cccc(OC)c2)N1 (stereo not drawn) [Example 297, 4-(2-Chlorophenyl)-5-cyano-4,7-dihydro-3-(3-methoxyphenyl)-6-propyl-2H-pyrazolo[3,4-b]pyridine]",239 °C
8,"CCCC1=C(C#N)C(c2ccccc2Cl)c2c(n[nH]c2-c2cccc3ccccc23)N1 (stereo not drawn) [Example 300, 4-(2-Chlorophenyl)-5-cyano-4,7-dihydro-3-(naphthalen-1-yl)-6-propyl-2H-pyrazolo[3,4-b]pyridine]",254 °C
9,"CCCC1=C(C#N)C(c2ccccc2Cl)c2c(n[nH]c2-c2ccc3ccccc3c2)N1 (stereo not drawn) [Example 301, 4-(2-Chlorophenyl)-5-cyano-4,7-dihydro-3-(naphthalen-2-yl)-6-propyl-2H-pyrazolo[3,4-b]pyridine]",> 270 °C
10,"CCCC1=C(C#N)C(c2ccccc2Cl)c2c(n[nH]c2CCC)N1 (stereo not drawn) [Example 302, 4-(2-Chlorophenyl)-5-cyano-4,7-dihydro-3,6-dipropyl-2H-pyrazolo[3,4-b]pyridine]",237 °C
11,"CCCCc1[nH]nc2c1C(c1ccccc1Cl)C(C#N)=C(CCC)N2 (stereo not drawn) [Example 304, 3-Butyl-4-(2-chlorophenyl)-5-cyano-4,7-dihydro-6-propyl-2H-pyrazolo[3,4-b]pyridine]",212 °C
12,"N#CC1=C(C2CCCCC2)Nc2n[nH]cc2C1c1ccccc1Cl (stereo not drawn) [Example 306, 4-(2-Chlorophenyl)-5-cyano-6-cyclohexyl-4,7-dihydro-2H-pyrazolo[3,4-b]pyridine]",163 °C
13,"CCCC1=C(C#N)C(c2ccccc2Cl)c2c(n[nH]c2C2CC2)N1 (stereo not drawn) [Example 308, 4-(2-Chlorophenyl)-5-cyano-3-cyclopropyl-4,7-dihydro-6-propyl-2H-pyrazolo[3,4-b]pyridine]",270 °C
14,"CCCC1=C(C#N)C(c2ccccc2Cl)c2c(n[nH]c2CC)N1 (stereo not drawn) [Example 309, 4-(2-Chlorophenyl)-5-cyano-4,7-dihydro-3-ethyl-6-propyl-2H-pyrazolo[3,4-b]pyridine]",269 °C
15,"CCCC1=C(C#N)C(c2ccccc2Cl)c2c(n[nH]c2C(C)(C)C)N1 (stereo not drawn) [Example 310, 3-t-Butyl-4-(2-chlorophenyl)-5-cyano-4,7-dihydro-6-propyl-2H-pyrazolo[3,4-b]pyridine]",> 270 °C
16,"CCCC1=C(C#N)C(c2ccccc2Cl)c2c(n[nH]c2C2CCCCC2)N1 (stereo not drawn) [Example 311, 4-(2-Chlorophenyl)-5-cyano-3-cyclohexyl-4,7-dihydro-6-propyl-2H-pyrazolo[3,4-b]pyridine]",> 270 °C
17,"N#CC1=C(C2CCCCCC2)Nc2n[nH]cc2C1c1ccccc1Cl (stereo not drawn) [Example 312, 4-(2-Chlorophenyl)-5-cyano-6-cycloheptyl-4,7-dihydro-2H-pyrazolo[3,4-b]pyridine]",146 °C
18,"CCCC1=C(C#N)C(c2ccccc2Cl)c2c(n[nH]c2C2CCCC2)N1 (stereo not drawn) [Example 314, 4-(2-Chlorophenyl)-5-cyano-3-cyclopentyl-4,7-dihydro-6-propyl-2H-pyrazolo[3,4-b]pyridine]",> 270 °C
19,"CCCC1=C(C#N)C(c2ccccc2Cl)c2c(n[nH]c2C(C)C)N1 (stereo not drawn) [Example 315, 4-(2-Chlorophenyl)-5-cyano-4,7-dihydro-6-propyl-3-isopropyl-2H-pyrazolo[3,4-b]pyridine]",> 270 °C
20,"N#CC1=C(C2CCCC2)Nc2n[nH]cc2C1c1ccccc1Cl (stereo not drawn) [Example 316, 4-(2-Chlorophenyl)-5-cyano-6-cyclopentyl-4,7-dihydro-2H-pyrazolo[3,4-b]pyridine]",225 °C
21,"N#CC1=C(C2CCCCCC2)Nc2n[nH]cc2C1c1cccc(C#N)c1Br (stereo not drawn) [Example 326, 4-(2-Bromo-3-cyanophenyl)-5-cyano-6-cycloheptyl-4,7-dihydro-2H-pyrazolo[3,4-b]pyridine]",252 °C
22,"CCCC1=C(C#N)C(c2cccnc2)c2c[nH]nc2N1 (stereo not drawn) [Example 327, 5-Cyano-4,7-dihydro-6-propyl-4-(pyridin-3-yl)-2H-pyrazolo[3,4-b]pyridine]",201 °C

# Second part, the compound after the results:
row,melting point,Structure (SMILES)
1,208 °C,"N#CC1=C(c2ccc(Br)s2)Nc2n[nH]cc2C1c1cccc2nonc12 (stereo not drawn) [Example 291, 4-(2,1,3-Benzoxadiazol-4-yl)-6-(2-bromothiophen-5-yl)-5-cyano-4,7-dihydro-2H-pyrazolo[3,4-b]pyridine]"
2,202 °C,"Cc1ccsc1C1=C(C#N)C(c2cccc3nonc23)c2c[nH]nc2N1 (stereo not drawn) [Example 292, 4-(2,1,3-Benzoxadiazol-4-yl)-5-cyano-4,7-dihydro-6-(3-methylthiophen-2-yl)-2H-pyrazolo[3,4-b]pyridine]"
3,200 °C,"COCn1cc(C2=C(C#N)C(c3cccc4nonc34)c3c[nH]nc3N2)c2ccccc21 (stereo not drawn) [Example 293, 4-(2,1,3-Benzoxadiazol-4-yl)-5-cyano-4,7-dihydro-6-(1-methoxymethylindol-3-yl)-2H-pyrazolo[3,4-b]pyridine]"
4,210 °C,"N#CC1=C(c2ccc(Cl)s2)Nc2n[nH]cc2C1c1cccc2nonc12 (stereo not drawn) [Example 298, 4-(2,1,3-Benzoxadiazol-4-yl)-6-(2-chlorothiophen-5-yl)-5-cyano-4,7-dihydro-2H-pyrazolo[3,4-b]pyridine]"
5,192 °C,"Cc1ccc(C2=C(C#N)C(c3cccc4nonc34)c3c[nH]nc3N2)s1 (stereo not drawn) [Example 299, 4-(2,1,3-Benzoxadiazol-4-yl)-5-cyano-4,7-dihydro-6-(2-methylthiophen-5-yl)-2H-pyrazolo[3,4-b]pyridine]"
6,220 °C,"N#CC1=C(c2cc3ccccc3s2)Nc2n[nH]cc2C1c1cccc2nonc12 (stereo not drawn) [Example 305, 4-(2,1,3-Benzoxadiazol-4-yl)-6-(benzothiophen-2-yl)-5-cyano-4,7-dihydro-2H-pyrazolo[3,4-b]pyridine]"
7,198 °C,"CC(C)(C)C1=C(C#N)C(c2ccccc2Cl)c2c[nH]nc2N1 (stereo not drawn) [Example 307, 6-t-Butyl-4-(2-chlorophenyl)-5-cyano-4,7-dihydro-2H-pyrazolo[3,4-b]pyridine]"
8,188 °C,"N#CC1=C(C2CCC2)Nc2n[nH]cc2C1c1ccccc1Cl (stereo not drawn) [Example 313, 4-(2-Chlorophenyl)-5-cyano-6-cyclobutyl-4,7-dihydro-2H-pyrazolo[3,4-b]pyridine]"
9,247 °C,"N#CC1=C(C2CCCC2)Nc2n[nH]cc2C1c1cccc(C#N)c1Br (stereo not drawn) [Example 317, 4-(2-Bromo-3-cyanophenyl)-5-cyano-6-cyclopentyl-4,7-dihydro-2H-pyrazolo[3,4-b]pyridine]"
10,193 °C,"N#CC1=C(C2CCCC2)Nc2n[nH]cc2C1c1cccc2nonc12 (stereo not drawn) [Example 318, 4-(2,1,3-Benzoxadiazol-4-yl)-5-cyano-6-cyclopentyl-4,7-dihydro-2H-pyrazolo[3,4-b]pyridine]"
11,251 °C,"CC(C)(C)C1=C(C#N)C(c2cccc(C#N)c2Br)c2c[nH]nc2N1 (stereo not drawn) [Example 319, 4-(2-Bromo-3-cyanophenyl)-6-t-butyl-5-cyano-4,7-dihydro-2H-pyrazolo[3,4-b]pyridine]"
12,204 °C,"CC(C)(C)C1=C(C#N)C(c2cccc3nonc23)c2c[nH]nc2N1 (stereo not drawn) [Example 320, 4-(2,1,3-Benzoxadiazol-4-yl)-6-t-butyl-5-cyano-4,7-dihydro-2H-pyrazolo[3,4-b]pyridine]"
13,278 °C,"N#CC1=C(C2CCC2)Nc2n[nH]cc2C1c1cccc(C#N)c1Br (stereo not drawn) [Example 321, 4-(2-Bromo-3-cyanophenyl)-5-cyano-6-cyclobutyl-4,7-dihydro-2H-pyrazolo[3,4-b]pyridine]"
14,194 °C,"N#CC1=C(C2CCC2)Nc2n[nH]cc2C1c1cccc2nonc12 (stereo not drawn) [Example 322, 4-(2,1,3-Benzoxadiazol-4-yl)-5-cyano-6-cyclobutyl-4,7-dihydro-2H-pyrazolo[3,4-b]pyridine]"
15,210 °C,"N#CC1=C(C2CCCCC2)Nc2n[nH]cc2C1c1cccc2nonc12 (stereo not drawn) [Example 323, 4-(2,1,3-Benzoxadiazol-4-yl)-5-cyano-6-cyclohexyl-4,7-dihydro-2H-pyrazolo[3,4-b]pyridine]"
16,228 °C,"N#CC1=C(C2CCCCCC2)Nc2n[nH]cc2C1c1cccc2nonc12 (stereo not drawn) [Example 324, 4-(2,1,3-Benzoxadiazol-4-yl)-5-cyano-6-cycloheptyl-4,7-dihydro-2H-pyrazolo[3,4-b]pyridine]"
17,193 °C,"N#CC1=C(C2CCCCC2)Nc2n[nH]cc2C1c1cccc(C#N)c1Br (stereo not drawn) [Example 325, 4-(2-Bromo-3-cyanophenyl)-5-cyano-6-cyclohexyl-4,7-dihydro-2H-pyrazolo[3,4-b]pyridine]"
